Test results published in US10543178B2, “Dosage forms and related therapies” (PhilERA New Zealand Limited, priority 2002, dated 2020).

What was measured:
[1] = Text: All animals were fasted overnight prior to surgery but continued to have ad libitum access to deionized water. […] The femoral artery and vein were cannulated with a solid-state blood pressure transducer (Mikrotip™ 1.4F, Millar Instruments, Texas, USA) and a saline filled PE 50 catheter respectively. The ureters were exposed via a midline abdominal incision, cannulated using polyethylene catheters (external diameter 0.9 mm, internal diameter 0.5 mm) and the wound sutured closed. The trachea was cannulated and the animal ventilated at 70-80 breaths·min^−1 with air supplemented with 02 (Pressure Controlled Ventilator, Kent Scientific, Connecticut, USA). The respiratory rate and end-tidal pressure (10-15 cmH2O) were adjusted to maintain end-tidal CO2 at 35-40 mmHg (SC-300 CO2 Monitor, Pryon Corporation, Wisconsin, USA). Body temperature was maintained at 37° C. throughout surgery and the experiment by a heating pad. Estimated fluid loss was replaced with intravenous administration of 154 mmol·l^−1 NaCl solution at a rate of 5 ml·kg^−1·h^−1.
Following surgery and a 20 min stabilization period, the experimental protocol was started. […] Control animals received an equivalent volume of saline. Urine was collected in 15 min aliquots throughout the experiment in pre-weighed polyethylene epindorf tubes. At the end of the experiment a terminal blood sample was taken by cardiac puncture and the separated serum stored at −80° C. until future analysis. Hearts were removed through a rapid mid-sternal thoracotomy and processed as described below.
Urine and tissue analysis was carried out as follows. Instrumentation: A Perkin Elmer (PE) Model 3100 Atomic Absorption Spectrophotometer equipped with a PE HGA-600 Graphite Furnace and PE AS-60 Furnace Autosampler was used for Cu and Fe determinations in urine. Deuterium background correction was employed. A Cu or Fe hollow-cathode lamp (Perkin Elmer Corporation) was used and operated at either […]. The 324.8 nm atomic line was used for Cu and the 248.3 nm atomic line for Fe. The slit width for both Cu and Fe was 0.7 nm. Pyrolytically coated graphite tubes were used for all analyses. The injection volume was 20 μL. A typical graphite furnace temperature program is shown below:
Urine: Urine was collected in pre-weighed 1.5 ml micro test tubes (eppendorf). After reweighing, the urine specimens were centrifuged and the supernatant diluted 25:1 with 0.02 M 69% Aristar grade HNO3. The sample was stored at 4° C. prior to GF-AAS analysis. If it was necessary to store a sample for a period in excess of 2 weeks, it was frozen and kept at −20° C. Serum: Terminal blood samples were centrifuged and serum treated and stored as per urine until analysis. From the trace metal content of serum from the terminal blood sample and urine collected over the final hour of the experiment, renal clearance was calculated using the following equation: […]
Statistical analyses were carried out as follows. All values are expressed as mean±SEM and P values <0.05 were considered statistically significant. Student's unpaired t-test was initially used to test for weight and glucose differences between the diabetic and control groups. For comparison of responses during drug exposure, statistical analyses were performed using analysis of variance (Statistics for Windows v.6.1, SAS Institute Inc., California, USA). Subsequent statistical analysis was performed using a mixed model repeated measures ANOVA design (see Example 4).

[2] = normal and diabetic rats, acute i.v. increasing doses
Procedure: Methods were carried out as follows. Spectrophotometric analysis was conducted as described in Example 2. Cu, Fe and Zn in tissue digests were determined at Hill Laboratories (Hamilton, New Zealand) using either a PE Sciex Elan-6000 or PE Sciex Elan-6100 DRC ICP-MS.
Sample pre-treatment was carried out as follows. Heart: Following removal from the animal, the heart was cleaned of excess tissue, rinsed in buffer to remove excess blood, blotted dry and a wet ventricular weight recorded. Using titanium instruments a segment of left ventricular muscle was dissected and placed in a pre-weighed 5.0 ml polystyrene tube. The sample was freeze-dried overnight to constant weight before 0.45 ml of 69% Aristar grade HNO3 was added. The sample tube was heated in a water bath at 65° C. for 60 minutes. The sample was brought to 4.5 ml with Milli-Q H2O. The resulting solution was diluted 2:1 in order to reduce the HNO3 concentration below the maximum permitted for ICP-MS analysis.

STZ diabetic rats = conditions: LCM and TEM
Text: Methods were as follows. Following functional analysis, LV histology was studied by laser confocal (LCM; FIG. 29a-d) and transmission electron microscopy (TEM; FIG. 29e-h). For LCM, LV sections were co-stained with phalloidin to visualize actin filaments, and β1-integrin as a marker for the extracellular space. Ding B, et al., “Left ventricular hypertrophy in ascending aortic stenosis in mice: anoikis and the progression to early failure,” Circulation 101:2854-2862 (2000).
For each treatment, 5 sections from each of 3 hearts were examined by both LCM and TEM. For LCM, LV sections were fixed (4% paraformaldehyde, 24 h); embedded (6% agar); vibratomed (120 pm, Campden); stained for f-actin (Phalloidin-488, Molecular Probes) and β1-integrin antibody with a secondary antibody of goat anti-rabbit conjugated to CY5 (1:200; Ding B, et al., “Left ventricular hypertrophy in ascending aortic stenosis in mice: anoikis and the progression to early failure,” Circulation 101:2854-2862 (2000)); and visualised (TCS-SP2, Leica). For TEM, specimens were post-fixed (1:1 v/v 1% w/v 0s0 M 0s0 M PBS); stained (aqueous uranyl acetate (2% w/v, 20 mm) then lead citrate (3 mm)); sectioned (70 nm); and visualized (CM-12, Phillips).

## NCCNCCNCCN [trientine, N,N′-Bis(2-aminoethyl)-1,2-ethanediamine]
[1]; diabetic and nondiabetic rats
  Iron excretion versus equivalent volume of saline: not greater
  Total iron excretion versus saline: not different
[1]; diabetic and nondiabetic rats, all doses 0.1-100 mg/kg i.v.
  Urinary Cu excretion versus equivalent volume of saline: excreted more Cu
[1]; diabetic rats, 0.1 mg·kg^−1 i.v. (lowest dose)
  Cu excretion in the urine versus saline: significantly increased
[1]; in response to each dose of drug
  Copper excretion per gram of body weight, diabetic versus nondiabetic animals: significantly greater
[1]; nondiabetic and diabetic rats
  Total copper excreted over the entire duration of the experiment versus saline controls: significantly increased
[1]; nondiabetic rats, 100 mg·kg^−1 i.v.
  Urine excretion versus equivalent volume of saline: increased
[1]; urine of drug-treated animals
  Form of urinary Cu by electron paramagnetic resonance spectroscopy: mainly complexed as trientine-Cu^II
[2]
  Effect on the copper content of cardiac tissue: no significant effect
STZ diabetic rats
  Myocardium from trientine-treated nondiabetics: appeared normal
